Measurements as given in ChEMBL document CHEMBL3638567, “2-heteroaryl carboxamides” (2015).

Biological target: Neuronal acetylcholine receptor subunit alpha-7 (Rattus norvegicus, UniProt Q05941)
Assay: Binding Assay: The [3H]-methyllycaconitine binding assay is a modification of the method described by Davies et al. in Neuropharmacol. 1999, 38, 679-690.Rat brain tissue (hippocampus or whole brain) is homogenized in homogenization buffer (10% w/v, 0.32 M sucrose, 1 mM EDTA, 0.1 mM phenylmethylsulphonyl fluoride (PMSF), 0.01% (w/v) NaN3, pH 7.4, 4 C.) at 600 rpm in a glass homogenizer. The homogenate is centrifuged (1000xg, 4 C., 10 min) and the supernatant is removed. The pellet is resuspended (20% w/v) and the suspension is centrifuged (1000xg, 4 C., 10 min). The two supernatants are combined and centrifuged (15 000xg, 4 C., 30 min). The pellet obtained in this way is referred to as the P2 fraction.The P2 pellet is suspended in binding buffer (50 mM Tris-HCl, 1 mM MgCl2, 120 mM NaCl, 5 mM KCl, 2 mM CaCl2, pH 7.4), and the suspension is centrifuged (15 000xg, 4 C., 30 min), twice.The residue is resuspended in binding buffer and incubated in a volume of 250 ul.
Format: tissue-based

Sequence of Neuronal acetylcholine receptor subunit alpha-7 (Q05941 whole entry): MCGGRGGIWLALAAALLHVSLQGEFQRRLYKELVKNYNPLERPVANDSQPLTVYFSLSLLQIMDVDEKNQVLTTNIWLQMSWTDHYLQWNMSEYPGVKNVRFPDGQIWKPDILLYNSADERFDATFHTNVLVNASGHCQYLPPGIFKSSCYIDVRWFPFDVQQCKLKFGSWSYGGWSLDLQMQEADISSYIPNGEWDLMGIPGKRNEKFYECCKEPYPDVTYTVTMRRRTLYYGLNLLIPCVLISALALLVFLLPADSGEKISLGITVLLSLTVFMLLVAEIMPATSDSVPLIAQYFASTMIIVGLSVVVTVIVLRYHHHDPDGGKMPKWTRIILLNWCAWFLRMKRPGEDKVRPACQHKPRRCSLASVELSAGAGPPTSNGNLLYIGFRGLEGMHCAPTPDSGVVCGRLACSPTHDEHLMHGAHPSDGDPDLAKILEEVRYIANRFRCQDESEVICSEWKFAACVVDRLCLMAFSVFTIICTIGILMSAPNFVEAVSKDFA

| SMILES | Ki |
| --- | --- |
| O=C(NC1CC1)c1cccc(-c2cccc3cc(C(=O)N[C@H]4CN5CCC4CC5)oc23)c1 | 3 nM |
| CNC(=O)NCc1ccccc1-c1cccc2cc(C(=O)N[C@H]3CN4CCC3CC4)sc12 | 3.3 nM |
| CN1CCN(C(=O)c2cccc(-c3cccc4cc(C(=O)N[C@H]5CN6CCC5CC6)oc34)c2)CC1 | 14 nM |
